# Data published in patent US20260022122A1 (Checkmate Therapeutics Inc., priority 2022, published 2026).
# Molecular target: NamPT (Homo sapiens (Human), UniProt P43490)
# Assay: Measurement of NamPT inhibitory ability IC50 (NamPT colorimetric assay kit, Abcam ab221819)
# Type: biochemical
# Conditions: NamPT recombinant protein, WST-1 absorbance at 450 nm; class key in μM
# Experimental: To test the effect of the compound prepared in each Example on the substrate decomposition rate (Vmax/min) mediated by NamPT enzyme, IC50 was calculated. In this experiment, the NamPT colorimetric assay kit (ab221819) produced by Abcam was used, and Graph prism software was used for IC50 calculation. PRPP, ATP, NMNAT1, NamPT recombinant proteins, and various concentrations of the compound of each Example (half-log step dilution from 100 μM) were added to nicotinamide to synthesize nicotinamide adenine dinucleotide (NAD) from the nicotinamide, and a total of 60 μL of the reaction solution was reacted at room temperature for 1 hour. WST-1 formazan converted by NAD generated by adding WST-1 was measured. The result of the reaction was obtained by the following formula by measuring absorbance using EnVision2105 (PerkinElmer) at 450 nm for 60 minutes at 2-minute intervals.
# In Mathematical Formula 1, T1 and T2 are arbitrary times, and A1 and A2 represent the absorbance measured at T1 and T2 at 450 nm, respectively.
# The results of measuring the NamPT inhibition activity of the compound of each Example obtained through the above experiment are shown in Table 1 in the unit of IC50 (nM), and the result values are expressed as follows.
# Sequence of NamPT (P43490 whole entry): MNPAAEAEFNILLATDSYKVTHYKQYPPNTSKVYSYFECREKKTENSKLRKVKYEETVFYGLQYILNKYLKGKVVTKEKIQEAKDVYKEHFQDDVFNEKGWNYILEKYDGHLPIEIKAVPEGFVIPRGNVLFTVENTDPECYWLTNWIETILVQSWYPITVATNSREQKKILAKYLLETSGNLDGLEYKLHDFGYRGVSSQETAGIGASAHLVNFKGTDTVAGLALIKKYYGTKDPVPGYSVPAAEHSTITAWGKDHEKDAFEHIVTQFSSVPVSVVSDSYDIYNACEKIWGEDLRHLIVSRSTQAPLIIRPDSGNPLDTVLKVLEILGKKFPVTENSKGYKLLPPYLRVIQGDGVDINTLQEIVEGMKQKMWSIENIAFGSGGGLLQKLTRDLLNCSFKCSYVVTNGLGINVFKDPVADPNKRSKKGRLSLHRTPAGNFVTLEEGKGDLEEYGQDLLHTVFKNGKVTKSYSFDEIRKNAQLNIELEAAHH
row,Compound,IC50 [µM]
1,"O=C(NCc1ccc(-c2nc3cc(F)ccc3o2)cc1)c1cnc2nccn2c1 [Example 18, N-[[4-(5-fluoro-1,3-benzoxazol-2-yl)phenyl]methyl]imidazo[1,2-a]pyrimidin-6-carboxamide]",0.11 to 1
2,"Cc1ccc2nc(-c3ccc(CNC(=O)c4ccc5nccn5c4)cc3)oc2c1 [Example 61, N-[[4-(6-methyl-1,3-benzoxazol-2-yl)phenyl]methyl]imidazo[1,2-a]pyridin-6-carboxamide]",0.11 to 1
3,"O=C(NCc1ccc(-c2nc3cc(Cl)ccc3o2)cc1)c1cnc2nccn2c1 [Example 16, N-[[4-(5-chloro-1,3-benzoxazol-2-yl)phenyl]methyl]imidazo[1,2-a]pyrimidin-6-carboxamide]",< 0.05
4,"Nc1ccc2oc(-c3ccc(CNC(=O)c4cnc5nccn5c4)cc3)nc2c1 [Example 46, N-[[4-(5-amino-1,3-benzoxazol-2-yl)phenyl]methyl]imidazo[1,2-a]pyrimidin-6-carboxamide]",0.051 to 0.1
5,"O=C(NCc1ccc(-c2nc3c(F)cc(F)cc3o2)cc1)c1cnc2nccn2c1 [Example 40, N-[[4-(4,6-difluoro-1,3-benzoxazol-2-yl)phenyl]methyl]imidazo[1,2-a]pyrimidin-6-carboxamide]",< 0.05
6,"Cc1ccc2nc(-c3ccc(CNC(=O)c4cnc5nccn5c4)cc3)oc2n1 [Example 24, N-[[4-(5-methyloxazolo[5,4-b]pyridin-2-yl)phenyl]methyl]imidazo[1,2-a]pyrimidin-6-carboxamide]",< 0.05
7,"Cc1ccc2nc(-c3ccc(C(C)NC(=O)c4cnc5nccn5c4)cc3)oc2c1 (stereo not drawn) [Example 64, N-[1-[4-(6-methyl-1,3-benzooxazol-2-yl)phenyl]ethyl]imidazo[1,2-a]pyrimidin-6-carboxamide]",> 1
8,"O=C(NCc1ccc(-c2nc3cc(CO)ccc3o2)cc1)c1cnc2nccn2c1 [Example 30, N-[[4-[5-(hydroxymethyl)-1,3-benzoxazol-2-yl]phenyl]methyl]imidazo[1,2-a]pyrimidin-6-carboxamide]",< 0.05
9,"CCc1ccc2oc(-c3ccc(CNC(=O)c4cnc5nccn5c4)cc3)nc2c1 [Example 44, N-[[4-(5-ethyl-1,3-benzoxazol-2-yl)phenyl]methyl]imidazo[1,2-a]pyrimidin-6-carboxamide]",< 0.05
10,"O=C(NCc1ccc(-c2nc3cc(Oc4ccccc4)ccc3o2)cc1)c1cnc2nccn2c1 [Example 53, N-[[4-(5-phenoxy-1,3-benzoxazol-2-yl)phenyl]methyl]imidazo[1,2-a]pyrimidin-6-carboxamide]",< 0.05
11,"O=C(NCc1ccc(-c2nc3cc(OCc4ccccc4)ccc3o2)cc1)c1cnc2nccn2c1 [Example 55, N-[[4-(5-benzyloxy-1,3-benzoxazol-2-yl)phenyl]methyl]imidazo[1,2-a]pyrimidin-6-carboxamide]",> 1
12,"O=C(NCc1ccc(-c2nc3ccc(Cl)nc3o2)cc1)c1cnc2nccn2c1 [Example 60, N-[[4-(5-chlorooxazolo[5,4-b]pyridin-2-yl)phenyl]methyl]imidazo[1,2-a]pyrimidin-6-carboxamide]",< 0.05
13,"Cc1cccc2nc(-c3ccc(CNC(=O)c4cnc5nccn5c4)cc3)oc12 [Example 21, N-[[4-(7-methyl-1,3-benzoxazol-2-yl)phenyl]methyl]imidazo[1,2-a]pyrimidin-6-carboxamide]",0.11 to 1
14,"CCCOc1ccc2oc(-c3ccc(CNC(=O)c4cnc5nccn5c4)cc3)nc2c1 [Example 54, N-[[4-(5-propoxy-1,3-benzoxazol-2-yl)phenyl]methyl]imidazo[1,2-a]pyrimidin-6-carboxamide]",0.051 to 0.1
15,"O=C(NCc1ccc(-c2nc3ccc(-c4ccccc4)cc3o2)cc1)c1cnc2nccn2c1 [Example 59, N-[[4-(6-phenyl-1,3-benzoxazol-2-yl)phenyl]methyl]imidazo[1,2-a]pyrimidin-6-carboxamide]",> 1
16,"O=C(NCc1ccc(-c2nc3ccc(Oc4cccnc4)cc3o2)cc1)c1cnc2nccn2c1 [Example 58, N-[[4-[6-(3-pyridyloxy)-1,3-benzoxazol-2-yl]phenyl]methyl]imidazo[1,2-a]pyrimidin-6-carboxamide]",< 0.05
17,"CCOC(=O)c1ccc2oc(-c3ccc(CNC(=O)c4cnc5nccn5c4)cc3)nc2c1 [Example 29, ethyl 2-[4-[(imidazo[1,2-a]pyrimidin-6-carbonylamino)methyl]phenyl]-1,3-benzoxazol-5-carboxylate]",< 0.05
18,"O=C(NCc1ccc(-c2nc3cc(Cl)c(C(F)(F)F)cc3o2)cc1)c1cnc2nccn2c1 [Example 42, N-[[4-[5-chloro-6-(trifluoromethyl)-1,3-benzoxazol-2-yl]phenyl]methyl]imidazo[1,2-a]pyrimidin-6-carboxamide]",< 0.05

row,Compound,IC50 [µM]
1,"CCS(=O)(=O)c1ccc2oc(-c3ccc(CNC(=O)c4cnc5nccn5c4)cc3)nc2c1 [Example 37, N-[[4-(5-ethylsulfonyl-1,3-benzoxazol-2-yl)phenyl]methyl]imidazo[1,2-a]pyrimidin-6-carboxamide]",0.11 to 1
2,"O=C(NCc1ccc(-c2nc3ccc(Cl)cc3s2)cc1)c1cnc2nccn2c1 [Example 50, N-[[4-(6-chloro-1,3-benzothiazol-2-yl)phenyl]methyl]imidazo[1,2-a]pyrimidin-6-carboxamide]",0.051 to 0.1
3,"O=C(NCc1ccc(-c2nc3cc(F)c(F)cc3o2)cc1)c1cnc2nccn2c1 [Example 39, N-[[4-(5,6-difluoro-1,3-benzoxazol-2-yl)phenyl]methyl]imidazo[1,2-a]pyrimidin-6-carboxamide]",< 0.05
4,"COc1cc2nc(-c3ccc(CNC(=O)c4cnc5nccn5c4)cc3)oc2cc1C [Example 43, N-[[4-(5-methoxy-6-methyl-1,3-benzoxazol-2-yl)phenyl]methyl]imidazo[1,2-a]pyrimidin-6-carboxamide]",< 0.05
5,"Cc1ccc2nc(-c3ccc(CNC(=O)c4cnc5nccn5c4)cc3)sc2c1 [Example 8, N-[[4-(6-methyl-1,3-benzothiazol-2-yl)phenyl]methyl]imidazo[1,2-a]pyrimidin-6-carboxamide]",< 0.05
6,O=C(NCc1ccc(-c2nc3cnc(Cl)cc3o2)cc1)c1cnc2nccn2c1 [Example 62],0.051 to 0.1
7,"O=C(NCc1ccc(-c2nc3cnccc3o2)cc1)c1cnc2nccn2c1 [Example 36, N-[(4-oxazolo[4,5-c]pyridin-2-ylphenyl)methyl]imidazo[1,2-a]pyrimidin-6-carboxamide]",0.11 to 1
8,"O=C(O)c1ccc2nc(-c3ccc(CNC(=O)c4cnc5nccn5c4)cc3)oc2c1 [Example 5, 2-[4-[(imidazo[1,2-a]pyrimidin-6-carbonylamino)methyl]phenyl]-1,3-benzoxazol-6-carboxylic acid]",0.11 to 1
9,"COc1ccc2oc(-c3ccc(CNC(=O)c4cnc5nccn5c4)cc3)nc2c1 [Example 7, N-[[4-(5-methoxy-1,3-benzoxazol-2-yl)phenyl]methyl]imidazo[1,2-a]pyrimidin-6-carboxamide]",< 0.05
10,"O=C(NCc1ccc(-c2nc3ccc(Oc4ccccc4)cc3o2)cc1)c1cnc2nccn2c1 [Example 57, N-[[4-(6-phenoxy-1,3-benzoxazol-2-yl)phenyl]methyl]imidazo[1,2-a]pyrimidin-6-carboxamide]",> 1
11,"Cc1ccc2nc(-c3ccc(CNC(=O)c4cnc5nccn5c4)nc3)oc2c1 [Example 28, N-[[5-(6-methyl-1,3-benzoxazol-2-yl)-2-pyridyl]methyl]imidazo[1,2-a]pyrimidin-6-carboxamide]",0.11 to 1
12,"O=C(NCc1ccc(-c2nc3cc(Oc4ccccn4)ccc3o2)cc1)c1cnc2nccn2c1 [Example 25, N-[[4-[5-(2-pyridyloxy)-1,3-benzoxazol-2-yl]phenyl]methyl]imidazo[1,2-a]pyrimidin-6-carboxamide]",< 0.05
13,"O=C(NCc1ccc(-c2nc3ccc(Cl)cc3o2)cn1)c1cnc2nccn2c1 [Example 63, N-[[5-(6-chloro-1,3-benzoxazol-2-yl)-2-pyridyl]methyl]imidazo[1,2-a]pyrimidin-6-carboxamide]",< 0.05
14,"O=C(NCc1ccc(-c2nc3cc(O)ccc3o2)cc1)c1cnc2nccn2c1 [Example 23, N-[[4-(5-hydroxy-1,3-benzoxazol-2-yl)phenyl]methyl]imidazo[1,2-a]pyrimidin-6-carboxamide]",< 0.05
15,"CCC(=O)Nc1ccc2oc(-c3ccc(CNC(=O)c4cnc5nccn5c4)cc3)nc2c1 [Example 15, N-[[4-[5-(propanoylamino)-1,3-benzoxazol-2-yl]phenyl]methyl]imidazo[1,2-a]pyrimidin-6-carboxamide]",0.11 to 1
16,"COc1ccc2nc(-c3ccc(CNC(=O)c4cnc5nccn5c4)cc3)sc2c1 [Example 52, N-[[4-(6-methoxy-1,3-benzothiazol-2-yl)phenyl]methyl]imidazo[1,2-a]pyrimidin-6-carboxamide]",< 0.05
17,"O=C(NCc1ccc(-c2nc3cc(-c4ccccc4)ccc3o2)cc1)c1cnc2nccn2c1 [Example 56, N-[[4-(5-phenyl-1,3-benzoxazol-2-yl)phenyl]methyl]imidazo[1,2-a]pyrimidin-6-carboxamide]",0.11 to 1
18,"O=C(NCc1ccc(-c2nc3cc(C(F)(F)F)c(Cl)cc3o2)cc1)c1cnc2nccn2c1 [Example 41, N-[[4-[6-chloro-5-(trifluoromethyl)-1,3-benzoxazol-2-yl]phenyl]methyl]imidazo[1,2-a]pyrimidin-6-carboxamide]",< 0.05
